{"source": "paper PMC2860105", "about": "(Science (New York, N.Y.), 2010)", "key": {"p110γ": {"molecular_target": "p110γ (Homo sapiens, UniProt P48736)", "sequence (P48736 whole entry, species assumed)": "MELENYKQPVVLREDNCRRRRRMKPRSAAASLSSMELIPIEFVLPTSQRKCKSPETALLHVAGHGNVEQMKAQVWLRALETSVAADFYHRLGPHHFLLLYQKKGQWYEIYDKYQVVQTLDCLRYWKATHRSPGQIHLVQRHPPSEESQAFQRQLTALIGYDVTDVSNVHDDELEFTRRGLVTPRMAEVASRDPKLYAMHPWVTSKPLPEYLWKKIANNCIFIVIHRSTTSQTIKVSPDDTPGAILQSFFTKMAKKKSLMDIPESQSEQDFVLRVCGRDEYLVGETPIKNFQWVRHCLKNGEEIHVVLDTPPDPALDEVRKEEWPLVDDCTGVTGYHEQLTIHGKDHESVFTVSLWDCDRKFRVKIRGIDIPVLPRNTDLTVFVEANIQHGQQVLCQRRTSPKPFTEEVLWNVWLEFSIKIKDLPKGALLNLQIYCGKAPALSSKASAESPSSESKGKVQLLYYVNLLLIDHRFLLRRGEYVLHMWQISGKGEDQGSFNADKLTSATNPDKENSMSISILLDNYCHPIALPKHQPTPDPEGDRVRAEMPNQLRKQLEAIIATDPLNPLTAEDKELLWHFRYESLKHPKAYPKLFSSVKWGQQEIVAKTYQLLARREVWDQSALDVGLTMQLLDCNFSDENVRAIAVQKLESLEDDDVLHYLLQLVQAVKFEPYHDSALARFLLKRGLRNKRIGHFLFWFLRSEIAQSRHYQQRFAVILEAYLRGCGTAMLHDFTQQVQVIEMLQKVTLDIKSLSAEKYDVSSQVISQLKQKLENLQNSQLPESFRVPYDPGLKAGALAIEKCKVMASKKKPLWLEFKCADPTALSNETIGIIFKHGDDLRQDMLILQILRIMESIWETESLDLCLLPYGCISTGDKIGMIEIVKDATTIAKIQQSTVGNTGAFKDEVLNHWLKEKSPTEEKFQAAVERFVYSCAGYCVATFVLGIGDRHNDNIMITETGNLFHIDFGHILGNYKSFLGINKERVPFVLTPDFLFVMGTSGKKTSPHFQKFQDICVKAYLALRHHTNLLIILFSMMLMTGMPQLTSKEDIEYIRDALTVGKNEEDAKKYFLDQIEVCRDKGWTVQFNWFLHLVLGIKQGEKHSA", "test": "in vitro inhibition of class I PI3K p110γ", "assay_type": "biochemical"}, "Vps34": {"tested_on": "Vps34", "test": "in vitro inhibition of Vps34", "assay_type": "biochemical"}}, "data": [{"smiles": "COc1ccc(-c2sc(NC(C)=O)nc2C)cc1S(=O)(=O)NCCO", "note": "[PT21]", "values": [{"measurement": "increase in IC50 for PI3Kγ (p110γ) compared to PIK93", "setting": "p110γ; ratio of IC50 values vs PIK93", "result": "> 10", "unit": "fold"}, {"measurement": "IC50", "setting": "p110γ; read-out: IC50 for the most potently inhibited Class I PI3K (p110γ), in vitro, Fig. S9", "result": 61, "unit": "nM"}, {"measurement": "change in IC50 relative to PIK-93 (in words)", "setting": "Vps34; analogues of PIK-93, Fig. S9", "result": "little change in IC50"}, {"measurement": "IC50", "setting": "Vps34; read-out: IC50 for Vps34, in vitro, Fig. S9", "result": 88, "unit": "nM"}]}, {"smiles": "Cn1cnc(N)c2ncnc1-2", "note": "[3-MA, 3-methyladenine, reference compound]", "values": [{"measurement": "specificity for Vps34 versus other PI3Ks (in words)", "setting": "Vps34; in vitro assays, Fig. S8, Fig. 4G", "result": "preference for Vps34"}]}, {"smiles": "CC(=O)Nc1nc(C)c(-c2ccc(Cl)c(S(=O)(=O)NCCO)c2)s1", "note": "[PIK-93, reference compound]", "values": [{"measurement": "IC50 of PIK-93 relative to PIK-90 (in words)", "setting": "Vps34; Fig. S8", "result": "lower IC50"}]}]}
